Legend:
[1] = tested on: Mycobacterium tuberculosis; conditions: 20 uM
[2] = tested on: Mycobacterium tuberculosis H37Rv; conditions: 100 uM
[3] = tested on: Mycobacterium tuberculosis; experiment: Inhibition of Mycobacterium tuberculosis K204 acetyltransferase Eis assessed as potentiation of kanamycin A-induced antimicrobial activity by measuring kanamycin A MIC level at 100 uM pre-incubated for 24 hrs before kanamycin A addition followed by incubation for 6 days by alamar blue assay (Rvb kanamycin A alone MIC = 10 ug/ml)
[4] = tested on: Mycobacterium tuberculosis; experiment: Antimicrobial activity against Mycobacterium tuberculosis H37Rv at 100 uM incubation for 6 days by alamar blue assay; assay type: ADME; conditions: 144 h
[5] = tested on: Mycobacterium tuberculosis; experiment: Antimicrobial activity against Mycobacterium tuberculosis K204 at 100 uM incubation for 6 days by alamar blue assay; assay type: ADME; conditions: 144 h
[6] = tested on: Mycobacterium tuberculosis H37Rv; conditions: 10 uM
[7] = tested on: Mycobacterium tuberculosis; experiment: Inhibition of Mycobacterium tuberculosis K204 acetyltransferase Eis assessed as potentiation of kanamycin A-induced antimicrobial activity by measuring kanamycin A MIC level at 10 uM pre-incubated for 24 hrs before kanamycin A addition followed by incubation for 6 days by alamar blue assay (Rvb kanamycin A alone MIC = 10 ug/ml)
[8] = tested on: Mycobacterium tuberculosis; experiment: Antimicrobial activity against Mycobacterium tuberculosis H37Rv at 10 uM incubation for 6 days by alamar blue assay; assay type: ADME; conditions: 144 h
[9] = tested on: Mycobacterium tuberculosis; experiment: Antimicrobial activity against Mycobacterium tuberculosis K204 at 10 uM incubation for 6 days by alamar blue assay; assay type: ADME; conditions: 144 h
[10] = tested on: Mycobacterium tuberculosis H37Rv; conditions: 37 uM
[11] = tested on: Mycobacterium tuberculosis; experiment: Inhibition of Mycobacterium tuberculosis K204 acetyltransferase Eis assessed as potentiation of kanamycin A-induced antimicrobial activity by measuring kanamycin A MIC level at 37 uM pre-incubated for 24 hrs before kanamycin A addition followed by incubation for 6 days by alamar blue assay (Rvb kanamycin A alone MIC = 10 ug/ml)
[12] = tested on: Mycobacterium tuberculosis H37Rv
[13] = tested on: Mycobacterium tuberculosis; experiment: Inhibition of Mycobacterium tuberculosis K204 acetyltransferase Eis assessed as potentiation of kanamycin A-induced antimicrobial activity by measuring kanamycin A MIC level at […] pre-incubated for 24 hrs before kanamycin A addition followed by incubation for 6 days by alamar blue assay (Rvb kanamycin A alone MIC = 10 ug/ml)
[14] = tested on: Mycobacterium tuberculosis; experiment: Antimicrobial activity against Mycobacterium tuberculosis H37Rv at […] incubation for 6 days by alamar blue assay; assay type: ADME; conditions: 144 h
[15] = tested on: Mycobacterium tuberculosis; experiment: Antimicrobial activity against Mycobacterium tuberculosis K204 at […] incubation for 6 days by alamar blue assay; assay type: ADME; conditions: 144 h
[16] = tested on: Mycobacterium tuberculosis; experiment: Antimicrobial activity against Mycobacterium tuberculosis H37Rv at 37 uM incubation for 6 days by alamar blue assay; assay type: ADME; conditions: 144 h
[17] = tested on: Mycobacterium tuberculosis; experiment: Antimicrobial activity against Mycobacterium tuberculosis K204 at 37 uM incubation for 6 days by alamar blue assay; assay type: ADME; conditions: 144 h
[18] = tested on: Mycobacterium tuberculosis H37Rv; remark: listed apart in the source
[19] = tested on: Mycobacterium tuberculosis H37Rv; conditions: 25 uM
[20] = tested on: Mycobacterium tuberculosis; experiment: Inhibition of Mycobacterium tuberculosis K204 acetyltransferase Eis assessed as potentiation of kanamycin A-induced antimicrobial activity by measuring kanamycin A MIC level at 25 uM pre-incubated for 24 hrs before kanamycin A addition followed by incubation for 6 days by alamar blue assay (Rvb kanamycin A alone MIC = 10 ug/ml)
[21] = tested on: Mycobacterium tuberculosis; experiment: Antimicrobial activity against Mycobacterium tuberculosis H37Rv at 25 uM incubation for 6 days by alamar blue assay; assay type: ADME; conditions: 144 h
[22] = tested on: Mycobacterium tuberculosis; experiment: Antimicrobial activity against Mycobacterium tuberculosis K204 at 25 uM incubation for 6 days by alamar blue assay; assay type: ADME; conditions: 144 h
[23] = tested on: Mycobacterium tuberculosis H37Rv; conditions: 70 uM
[24] = tested on: Mycobacterium tuberculosis; experiment: Inhibition of Mycobacterium tuberculosis K204 acetyltransferase Eis assessed as potentiation of kanamycin A-induced antimicrobial activity by measuring kanamycin A MIC level at 70 uM pre-incubated for 24 hrs before kanamycin A addition followed by incubation for 6 days by alamar blue assay (Rvb kanamycin A alone MIC = 10 ug/ml)
[25] = tested on: Mycobacterium tuberculosis; experiment: Antimicrobial activity against Mycobacterium tuberculosis H37Rv at 70 uM incubation for 6 days by alamar blue assay; assay type: ADME; conditions: 144 h
[26] = tested on: Mycobacterium tuberculosis; experiment: Antimicrobial activity against Mycobacterium tuberculosis K204 at 70 uM incubation for 6 days by alamar blue assay; assay type: ADME; conditions: 144 h
[27] = tested on: Mycobacterium tuberculosis H37Rv; conditions: 23 uM
[28] = tested on: Mycobacterium tuberculosis; experiment: Inhibition of Mycobacterium tuberculosis K204 acetyltransferase Eis assessed as potentiation of kanamycin A-induced antimicrobial activity by measuring kanamycin A MIC level at 23 uM pre-incubated for 24 hrs before kanamycin A addition followed by incubation for 6 days by alamar blue assay (Rvb kanamycin A alone MIC = 10 ug/ml)
[29] = tested on: Mycobacterium tuberculosis; experiment: Antimicrobial activity against Mycobacterium tuberculosis H37Rv at 23 uM incubation for 6 days by alamar blue assay; assay type: ADME; conditions: 144 h
[30] = tested on: Mycobacterium tuberculosis; experiment: Antimicrobial activity against Mycobacterium tuberculosis K204 at 23 uM incubation for 6 days by alamar blue assay; assay type: ADME; conditions: 144 h
[31] = tested on: Mycobacterium tuberculosis H37Rv; conditions: 30 uM
[32] = tested on: Mycobacterium tuberculosis; experiment: Inhibition of Mycobacterium tuberculosis K204 acetyltransferase Eis assessed as potentiation of kanamycin A-induced antimicrobial activity by measuring kanamycin A MIC level at 30 uM pre-incubated for 24 hrs before kanamycin A addition followed by incubation for 6 days by alamar blue assay (Rvb kanamycin A alone MIC = 10 ug/ml)
[33] = tested on: Mycobacterium tuberculosis; experiment: Antimicrobial activity against Mycobacterium tuberculosis H37Rv at 30 uM incubation for 6 days by alamar blue assay; assay type: ADME; conditions: 144 h
[34] = tested on: Mycobacterium tuberculosis; experiment: Antimicrobial activity against Mycobacterium tuberculosis K204 at 30 uM incubation for 6 days by alamar blue assay; assay type: ADME; conditions: 144 h
[35] = tested on: Mycobacterium tuberculosis; experiment: Inhibition of Mycobacterium tuberculosis AAC(2')-Ic at 200 uM
[36] = tested on: Mycobacterium tuberculosis H37Rv; conditions: 8 uM
[37] = tested on: Mycobacterium tuberculosis; experiment: Inhibition of Mycobacterium tuberculosis K204 acetyltransferase Eis assessed as potentiation of kanamycin A-induced antimicrobial activity by measuring kanamycin A MIC level at 8 uM pre-incubated for 24 hrs before kanamycin A addition followed by incubation for 6 days by alamar blue assay (Rvb kanamycin A alone MIC = 10 ug/ml)
[38] = tested on: Mycobacterium tuberculosis; experiment: Antimicrobial activity against Mycobacterium tuberculosis H37Rv at 8 uM incubation for 6 days by alamar blue assay; assay type: ADME; conditions: 144 h
[39] = tested on: Mycobacterium tuberculosis; experiment: Antimicrobial activity against Mycobacterium tuberculosis K204 at 8 uM incubation for 6 days by alamar blue assay; assay type: ADME; conditions: 144 h

Row | Compound | MIC [2] | MIC [3] | Activity [4] | Activity [5] | further results
1 | Cc1cc(NS(=O)(=O)c2ccc3[nH]c(=O)c(=O)[nH]c3c2)ccc1Br |  |  |  |  | fold change (FC) [1]: > 3
2 | CC(C)c1ccc(NS(=O)(=O)c2ccc3[nH]c(=O)c(=O)[nH]c3c2)cc1 | < 1.25 µg/mL | 5 µg/mL | Non-Toxic | Non-Toxic | 
3 | CN(c1ccc(Cl)cc1)S(=O)(=O)c1ccc2[nH]c(=O)c(=O)[nH]c2c1 |  |  |  |  | MIC [6]: < 1.25 µg/mL; MIC [7]: 2.5 µg/mL; Activity [8]: Non-Toxic; Activity [9]: Non-Toxic
4 | COc1cc(OC)cc(N(C)S(=O)(=O)c2ccc3[nH]c(=O)c(=O)[nH]c3c2)c1 | < 1.25 µg/mL | 5 to 10 µg/mL | Non-Toxic | Non-Toxic | 
5 | COc1cc(N(C)S(=O)(=O)c2ccc3[nH]c(=O)c(=O)[nH]c3c2)cc2ccccc12 | < 1.25 µg/mL | 10 µg/mL | Non-Toxic | Non-Toxic | 
6 | Cc1cccc(N(C)S(=O)(=O)c2ccc3nc(O)c(O)nc3c2)c1 |  |  |  |  | MIC [10]: < 1.25 µg/mL; MIC [11]: 2.5 to 5 µg/mL
7 | CN(c1ccccc1)S(=O)(=O)c1ccc2[nH]c(=O)c(=O)[nH]c2c1 | < 1.25 µg/mL | 5 µg/mL | Non-Toxic | Non-Toxic | 
8 | CCc1cccc(N(C)S(=O)(=O)c2ccc3[nH]c(=O)c(=O)[nH]c3c2)c1 |  |  |  |  | MIC [12]: < 1.25 µg/mL; MIC [13]: 5 to 10 µg/mL; Activity [14]: Non-Toxic; Activity [15]: Non-Toxic
9 | CN(c1cccc(C(C)(C)C)c1)S(=O)(=O)c1ccc2[nH]c(=O)c(=O)[nH]c2c1 | < 1.25 µg/mL | 5 to 10 µg/mL | Non-Toxic | Non-Toxic | 
10 | CN(c1ccc2ccccc2c1)S(=O)(=O)c1ccc2[nH]c(=O)c(=O)[nH]c2c1 | < 1.25 µg/mL | < 1.25 µg/mL | Non-Toxic | Non-Toxic | 
11 | Cc1cccc(N(C)S(=O)(=O)c2ccc3[nH]c(=O)c(=O)[nH]c3c2)c1 |  |  |  |  | Activity [16]: Non-Toxic; Activity [17]: Non-Toxic
12 | CN(c1cccc(Br)c1)S(=O)(=O)c1ccc2[nH]c(=O)c(=O)[nH]c2c1 |  |  |  |  | MIC [18]: < 1.25 µg/mL; MIC [13]: 2.5 µg/mL; Activity [14]: Non-Toxic; Activity [15]: Non-Toxic
13 | CC(C)c1ccc(N(C)S(=O)(=O)c2ccc3[nH]c(=O)c(=O)[nH]c3c2)cc1 |  |  |  |  | MIC [19]: < 1.25 µg/mL; MIC [20]: 2.5 to 5 µg/mL; Activity [21]: Non-Toxic; Activity [22]: Non-Toxic
14 | CCCCc1cccc(N(C)S(=O)(=O)c2ccc3[nH]c(=O)c(=O)[nH]c3c2)c1 |  |  |  |  | MIC [23]: < 1.25 µg/mL; MIC [24]: 5 to 10 µg/mL; Activity [25]: Non-Toxic; Activity [26]: Non-Toxic
15 | O=c1[nH]c2ccc(S(=O)(=O)Nc3ccccc3)cc2[nH]c1=O | < 1.25 µg/mL | 10 µg/mL | Non-Toxic | Non-Toxic | 
16 | CC(C)c1cccc(N(C)S(=O)(=O)c2ccc3[nH]c(=O)c(=O)[nH]c3c2)c1 |  |  |  |  | MIC [27]: < 1.25 µg/mL; MIC [28]: 2.5 to 5 µg/mL; Activity [29]: Non-Toxic; Activity [30]: Non-Toxic
17 | O=c1[nH]c2ccc(S(=O)(=O)Nc3ccc(Br)cc3)cc2[nH]c1=O | < 1.25 µg/mL | 5 µg/mL | Non-Toxic | Non-Toxic | 
18 | CN(c1cccc(F)c1)S(=O)(=O)c1ccc2[nH]c(=O)c(=O)[nH]c2c1 |  |  |  |  | MIC [31]: < 1.25 µg/mL; MIC [32]: 5 µg/mL; Activity [33]: Non-Toxic; Activity [34]: Non-Toxic
19 | O=c1[nH]c2ccc(S(=O)(=O)Nc3ccc4c(c3)OCCO4)cc2[nH]c1=O |  |  |  |  | fold change (FC) [1]: > 3
20 | COc1cccc(N(C)S(=O)(=O)c2ccc3[nH]c(=O)c(=O)[nH]c3c2)c1 | < 1.25 µg/mL | < 1.25 µg/mL | Non-Toxic | Non-Toxic | inhibition [35]: 15%
21 | O=c1[nH]c2ccc(S(=O)(=O)Nc3ccc(Cl)c(C(F)(F)F)c3)cc2[nH]c1=O |  |  |  |  | fold change (FC) [1]: > 3
22 | COc1ccccc1N(C)S(=O)(=O)c1ccc2[nH]c(=O)c(=O)[nH]c2c1 | < 1.25 µg/mL | 10 µg/mL | Non-Toxic | Non-Toxic | 
23 | CN(c1ccc(Br)cc1)S(=O)(=O)c1ccc2[nH]c(=O)c(=O)[nH]c2c1 |  |  |  |  | MIC [36]: < 1.25 µg/mL; MIC [37]: 2.5 µg/mL; Activity [38]: Non-Toxic; Activity [39]: Non-Toxic
